Square brackets hold non-standard residues; d marks the D form. Ends that are not written are not given here. pT = C[C@@H](OP(=O)(O)O)[C@H](N)C(=O)O; pS = N[C@@H](COP(=O)(O)O)C(=O)O
Columns and labels:
CD8^+ T cells (PBMCs) = test: Intracellular cytokine staining (ICS) of PBMCs after 7 days of stimulation with MHC-I-pP (healthy donors, HH patients); assay type: cell-based, human; conditions: for Reactive CD8^+ T cell population, HH2: HH patient HH2; for Reactive CD8^+ T cell population, HH3: HH patient HH3; for Reactive CD8^+ T cell population, HH8: HH patient HH8; for Reactive CD8^+ T cell population, HH11: HH patient HH11
Experimental: From this, CD8^+ T cell responses against newly identified MHC class I-associated phosphopeptides in healthy individuals and patients with chronic liver disease were investigated. Twenty-one of the newly identified HCC-associated HLA-A*0201-restricted phosphopeptides were selected (see Table 17) for further immunological testing in HLA-A*0201 positive patients. MHC-I-pP-specific cytotoxic CD8^+ T cell responses (ppCTL) were assessed using intracellular cytokine staining (ICS) and several cytokines and surface markers were assessed in parallel. After 7 days of stimulation with the respective MHC-I-pP and no other cytokines, CD3- and CD8-expressing T cells were stained for at least two different cytokines (IFN-γ, TNF-α) and when required CD107a expression as a marker for their cytotoxic potential.
First, peripheral blood mononuclear cells (PBMCs) from healthy donors and patients with hereditary hemochromatosis (HH) were analyzed. HH is a chronic liver disease characterized by excessive intestinal absorption of dietary iron resulting in a pathological deposition of iron in the liver. PBMCs or lymphocytes from liver tissue were extracted and specifically stimulated with (phospho-) peptides for 7 days before intracellular cytokine staining (ICS). Doublets and dead cells, using a fixable viability dye, were excluded. Lymphocytes were gated on CD3^+ and CD8^+ double positive cells and were analysed for expression of IFNγ, TNFα-, and CD107a.

[1] = test system: expanded TIL / IHL cultures; test: ICS for MHC-I-pP reactivity of liver-derived lymphocyte cultures after unspecific rapid expansion protocol (REP); assay type: cell-based, human
[2] = test system: expanded lymphocyte cultures from deceased donor livers, cirrhotic livers and HCC; test: ICS for MHC-I-pP reactivity of liver-derived lymphocyte cultures after phosphopeptide-specific expansion; assay type: cell-based, human; conditions: for ppCTL response, HCC Distal HCC 1: HCC 1 Distal; for ppCTL response, HCC Tumor HCC 1: HCC 1 Tumor; for ppCTL response, HCC Distal HCC 4: HCC 4 Distal
[3] = test system: unexpanded lymphocyte cultures (CD8^+ T cells); test: ICS for MHC-I-pP reactivity of lymphocyte cultures without expansion (Table 23, No Expansion); conditions: HH6
[4] = pP-specifically expanded culture

With “ALDsGASLLHL: RIPK4 phosphopeptide, HLA-A*0201 (ALD[pS]GASLLHL; listed as Homo sapiens)” the “Reactive CD8^+ T cell population, HH2” value (CD8^+ T cells (PBMCs)) was 0 (<0.25% reactive CD8^-+ T cells), the “Reactive CD8^+ T cell population, HH3” value (CD8^+ T cells (PBMCs)) was 0 (<0.25% reactive CD8^-+ T cells) and the “Reactive CD8^+ T cell population, HH6” value (CD8^+ T cells (PBMCs); HH patient HH6) was 0 (<0.25% reactive CD8^-+ T cells). For the same substance, the “Reactive CD8^+ T cell population, HH8” value (CD8^+ T cells (PBMCs)) was 0 (<0.25% reactive CD8^-+ T cells), the “Reactive CD8^+ T cell population, HH11” value (CD8^+ T cells (PBMCs)) was 1 (0.25-2.5% reactive CD8^-+ T cells) and the “Reactive CD8^+ T cell population, HD1” value (CD8^+ T cells (PBMCs); Healthy donor HD1) was 0 (<0.25% reactive CD8^-+ T cells). For the same substance, the “Reactive CD8^+ T cell population, HD4” value (CD8^+ T cells (PBMCs); Healthy donor HD4) was 0 (<0.25% reactive CD8^-+ T cells), the “Reactive CD8^+ T cell population, HD5” value (CD8^+ T cells (PBMCs); Healthy donor HD5) was 0 (<0.25% reactive CD8^-+ T cells) and the “Reactive CD8^+ T cells, Non-specific Expansion, Do2” value ([1]; Do2) was 0 (<0.25% reactive CD8^-+ T cells). For the same substance, the “Reactive CD8^+ T cells, Non-specific Expansion, Do4” value ([1]; Do4) was 0 (<0.25% reactive CD8^-+ T cells), the “Reactive CD8^+ T cells, Non-specific Expansion, HH6” value ([1]; HH6) was 0 (<0.25% reactive CD8^-+ T cells) and the “Reactive CD8^+ T cells, pP-specific Expansion, Do2” value [2] was 0 (<0.25% reactive CD8^-+ T cells). For the same substance, the “Reactive CD8^+ T cells, pP-specific Expansion, Do4” value [2] was 0 (<0.25% reactive CD8^-+ T cells), the “Reactive CD8^+ T cells, pP-specific Expansion, HH6” value [2] was 2 (2.5-5.0% reactive CD8^-+ T cells) and the “ppCTL response, Deceased Donor Liver Do 2” value [2, 4] was 0 (<0.25% reactive CD8-+ T cells). The “ppCTL response, Deceased Donor Liver Do 3” value [2, 4] was 0 (<0.25% reactive CD8-+ T cells), the “ppCTL response, Deceased Donor Liver Do 4” value [2, 4] was 0 (<0.25% reactive CD8-+ T cells) and the “ppCTL response, Deceased Donor Liver Do 6” value [2, 4] was 0 (<0.25% reactive CD8-+ T cells). The “ppCTL response, End-stage Liver Cirrhosis IHL 11” value [2, 4] was 0 (<0.25% reactive CD8-+ T cells), the “ppCTL response, End-stage Liver Cirrhosis IHL 12” value ([2]; pP-specifically expanded culture, End-stage Liver Cirrhosis IHL 12) was 0 (<0.25% reactive CD8-+ T cells) and the “ppCTL response, End-stage Liver Cirrhosis IHL 13” value [2, 4] was 0 (<0.25% reactive CD8-+ T cells). For the same substance, the “ppCTL response, End-stage Liver Cirrhosis IHL 15” value ([2]; pP-specifically expanded culture, End-stage Liver Cirrhosis IHL 15) was 3 (5-7.5% reactive CD8-+ T cells), the “ppCTL response, HCC Distal HCC 1” value [2, 4] was 0 (<0.25% reactive CD8-+ T cells) and the “ppCTL response, HCC Tumor HCC 1” value [2, 4] was 0 (<0.25% reactive CD8-+ T cells). The “ppCTL response, HCC Distal HCC 4” value [2, 4] was 0 (<0.25% reactive CD8-+ T cells), the “ppCTL response, HCC Distal HCC 9” value ([2]; pP-specifically expanded culture, HCC 9 Distal) was 0 (<0.25% reactive CD8-+ T cells) and the “ppCTL response, HCC Tumor HCC 9” value ([2]; pP-specifically expanded culture, HCC 9 Tumor) was 0 (<0.25% reactive CD8-+ T cells). For the same substance, the “ppCTL response, HCC Distal HCC 12” value ([2]; pP-specifically expanded culture, HCC 12 Distal) was 0 (<0.25% reactive CD8-+ T cells) and the “Reactive CD8^+ T cells, No Expansion, HH6” value [3] was 2 (2.5-5.0% reactive CD8^-+ T cells).
With “KLFPDtPLAL: ILF3 phosphopeptide, HLA-A*0201 (KLFPD[pT]PLAL; listed as Homo sapiens)” the “Reactive CD8^+ T cell population, HH2” value (CD8^+ T cells (PBMCs)) was 0 (<0.25% reactive CD8^-+ T cells), the “Reactive CD8^+ T cell population, HH3” value (CD8^+ T cells (PBMCs)) was 0 (<0.25% reactive CD8^-+ T cells) and the “Reactive CD8^+ T cell population, HH8” value (CD8^+ T cells (PBMCs)) was 0 (<0.25% reactive CD8^-+ T cells). The “Reactive CD8^+ T cell population, HH11” value (CD8^+ T cells (PBMCs)) was 0 (<0.25% reactive CD8^-+ T cells), the “Reactive CD8^+ T cells, pP-specific Expansion, Do2” value [2] was 0 (<0.25% reactive CD8^-+ T cells) and the “Reactive CD8^+ T cells, pP-specific Expansion, Do4” value [2] was 0 (<0.25% reactive CD8^-+ T cells). The “Reactive CD8^+ T cells, pP-specific Expansion, HH6” value [2] was 0 (<0.25% reactive CD8^-+ T cells), the “ppCTL response, Deceased Donor Liver Do 2” value [2, 4] was 0 (<0.25% reactive CD8-+ T cells) and the “ppCTL response, Deceased Donor Liver Do 3” value [2, 4] was 0 (<0.25% reactive CD8-+ T cells). For the same substance, the “ppCTL response, Deceased Donor Liver Do 4” value [2, 4] was 0 (<0.25% reactive CD8-+ T cells), the “ppCTL response, Deceased Donor Liver Do 6” value [2, 4] was 0 (<0.25% reactive CD8-+ T cells) and the “ppCTL response, End-stage Liver Cirrhosis IHL 11” value [2, 4] was 0 (<0.25% reactive CD8-+ T cells). For the same substance, the “ppCTL response, End-stage Liver Cirrhosis IHL 13” value [2, 4] was 0 (<0.25% reactive CD8-+ T cells), the “ppCTL response, HCC Distal HCC 1” value [2, 4] was 0 (<0.25% reactive CD8-+ T cells) and the “ppCTL response, HCC Tumor HCC 1” value [2, 4] was 0 (<0.25% reactive CD8-+ T cells). For the same substance, the “ppCTL response, HCC Distal HCC 4” value [2, 4] was 0 (<0.25% reactive CD8-+ T cells) and the “Reactive CD8^+ T cells, No Expansion, HH6” value [3] was 0 (<0.25% reactive CD8^-+ T cells).
In the case of “RLFsKELRC: TAF13 phosphopeptide, HLA-A*0201 (RLF[pS]KELRC; listed as Homo sapiens)”, the “Reactive CD8^+ T cell population, HH2” value (CD8^+ T cells (PBMCs)) is reported as 2 (2.5-5.0% reactive CD8^-+ T cells), the “Reactive CD8^+ T cell population, HH3” value (CD8^+ T cells (PBMCs)) is reported as 0 (<0.25% reactive CD8^-+ T cells) and the “Reactive CD8^+ T cell population, HH8” value (CD8^+ T cells (PBMCs)) is reported as 0 (<0.25% reactive CD8^-+ T cells). The “Reactive CD8^+ T cells, pP-specific Expansion, Do2” value [2] was 0 (<0.25% reactive CD8^-+ T cells), the “Reactive CD8^+ T cells, pP-specific Expansion, Do4” value [2] was 0 (<0.25% reactive CD8^-+ T cells) and the “Reactive CD8^+ T cells, pP-specific Expansion, HH6” value [2] was 0 (<0.25% reactive CD8^-+ T cells). The “ppCTL response, Deceased Donor Liver Do 2” value [2, 4] was 1 (0.25-2.5% reactive CD8-+ T cells), the “ppCTL response, Deceased Donor Liver Do 3” value [2, 4] was 0 (<0.25% reactive CD8-+ T cells) and the “ppCTL response, Deceased Donor Liver Do 4” value [2, 4] was 0 (<0.25% reactive CD8-+ T cells). The “ppCTL response, Deceased Donor Liver Do 6” value [2, 4] was 0 (<0.25% reactive CD8-+ T cells), the “ppCTL response, End-stage Liver Cirrhosis IHL 11” value [2, 4] was 0 (<0.25% reactive CD8-+ T cells) and the “ppCTL response, End-stage Liver Cirrhosis IHL 13” value [2, 4] was 0 (<0.25% reactive CD8-+ T cells). For the same substance, the “ppCTL response, HCC Distal HCC 1” value [2, 4] was 0 (<0.25% reactive CD8-+ T cells), the “ppCTL response, HCC Tumor HCC 1” value [2, 4] was 0 (<0.25% reactive CD8-+ T cells) and the “ppCTL response, HCC Distal HCC 4” value [2, 4] was 0 (<0.25% reactive CD8-+ T cells). For the same substance, the “Reactive CD8^+ T cells, No Expansion, HH6” value [3] was 0 (<0.25% reactive CD8^-+ T cells).

— patent publication US20190374627A1, “TARGET PEPTIDES FOR CANCER THERAPY AND DIAGNOSTICS” (priority 2016, published 2019)
